Assay results from patent publication US20120238488A1, “COMPOUNDS AND METHODS FOR TREATING NEOPLASIA” (priority 2009, published 2012).
Where two headings read alike, the source gives them in different places.

Columns and labels:
[1] = system: SF268 (CNS); assay: SRB assay, SF268; assay type: cell-based; conditions: Homo sapiens; for CC50: SF-268, 48 h, read-out: LC50; for GI50 / IC (TGI): SF-268, SF268, SRB, 48 h; for GI50: read-out: GI50; for IC (TGI): read-out: TGI
Procedure, shortened: (§1)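 Here GI50 marks halving of net protein increase, TGI the dose where final equals time-zero protein, and LC50 a 50% protein fall from baseline.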

[2] = system: SKMEL28 (Melanoma); assay: SRB assay, SKMEL28; assay type: cell-based, human; conditions: for CC50 / GI50: Homo sapiens; for CC50: SK-MEL-28, 48 h, read-out: LC50; for GI50: SK-MEL-28; for GI50 / TGI: SKMEL28, SRB, 48 h
Procedure: (§2) SRB assays were performed according to standard National Cancer Institute Guidelines. Briefly, human tumor cells from different cancer panels were seeded into 96 well plates in 100 μL (plating densities ranging from 5-40,000 cells/well depending on the doubling time of individual cell lines) in serum-containing media for twenty-four hours prior to the addition of the compounds to be assayed. After 24 hours, one plate of each cell line was fixed in situ with trichloroacetic acid (TCA). The fixed slides were used to determine the cell population for each cell line at the time of drug addition (Tz). Each compound to be tested was solubilized in DMSO and the desired concentration was then added to the medium and diluted serially 1:10 to provide a total of five or ten drug concentrations plus control (in a final volume of 200 μL). The starting dose before any dilution was 100 uM for all compounds.
(§3) Following drug addition, each culture was incubated for forty-eight hours. The assay was terminated with the addition of cold TCA. The supernatant was discarded, and the plates were washed with tap water and air dried. Sulforhodamine B (SRB) solution was then added to each well. After staining, the bound stain was solubilized and the absorbance was read on an automated plate reader at a wavelength of 515 nm.
(§4) Using the absorbance measurements [time zero, (Tz), control growth, (C), and test growth in the presence of drug at the ten concentration levels (Ti)], the percentage growth was calculated at each of the drug concentrations levels. Percentage growth inhibition was calculated as:
(§5) [(Ti−Tz)/(C−Tz)]×100 for concentrations for which Ti>/=Tz
(§6) [(Ti−Tz)/Tz]×100 for concentrations for which Ti<Tz.
(§7) Three dose response parameters were calculated for each experimental agent. Growth inhibition of 50% (GI50) was calculated from [(Ti−Tz)/(C−Tz)]×100=50, which was the drug concentration resulting in a 50% reduction in the net protein increase (as measured by SRB staining) in control cells during the drug. The drug concentration resulting in total growth inhibition (TGI) was calculated from Ti=Tz. The LC50 (concentration of drug resulting in a 50% reduction in the measured protein at the end of the drug treatment as compared to that at the beginning) indicating a net loss of cells following treatment was calculated from [(Ti−Tz)/Tz]×100=−50.
(§8) Values were calculated for each of these three parameters when the level of activity was reached; however, if the effect was not reached or was exceeded, the value for that parameter was expressed as greater or less than the maximum or minimum concentration tested.
(§9) Table 4 summarizes results characterizing the effects of compound Nos. 120, 12, 61, 1, and 56 on GI50, which measures the cell growth inhibitory power of the compound, TGI, which measures cytostatic effect (TGI) and LC50, which signifies cytotoxic effect. Each of these parameters in Table 4 was calculated in a sulforhodamine B (SRB) assay, which provides a colorimetric measure of a compound's anti-cancer activity. SRB assays were performed with compounds of the invention in 22 different cell lines (shaded in light gray in Table 4), which represent nine different tumor panels (lung, melanoma, ovary, prostate, CNS, breast, pancreas colon and renal). Ouabain and digoxin were used as controls. Paclitaxel was added as a non-Na^+K^+-ATPase inhibitor control.

[3] = system: ERVK (Lung); assay: SRB assay, ERVK; assay type: cell-based, human; conditions: 48 h; for TGI / GI50: ERVK, SRB; for CC50 / GI50: Homo sapiens; for CC50: read-out: LC50
Procedure: as §2, §3, §4, §5, §6, §7, §8, §9

[4] = system: HCT116 (Colon); assay: SRB assay, HCT116; assay type: cell-based; conditions: Homo sapiens; for CC50: HCT-116, 48 h, read-out: LC50; for GI50 / IC (TGI): HCT-116, HCT116, SRB, 48 h
Procedure, shortened: as §1

[5] = system: OVCAR5 (Ovary); assay: SRB assay, OVCAR5; assay type: cell-based, human; conditions: for CC50 / GI50: Homo sapiens; for CC50: OVCAR-5, 48 h, read-out: LC50; for GI50: OVCAR-5; for GI50 / TGI: OVCAR5, SRB, 48 h
Procedure: as §2, §3, §4, §5, §6, §7, §8, §9

[6] = system: Na+/K+-ATPase (Adenosine 5′-Triphosphatase isolated from porcine cerebral cortex); assay: Na+/K+-ATPase inhibitory activity, colorimetric Adenosine 5'-Triphosphatase Enzymatic Assay; assay type: biochemical
Procedure: The inhibitory effect of a compound of the invention on ATPase activity was assessed in vitro using the colorimetric Adenosine 5′-Triphosphatase Enzymatic Assay of Sigma (St. Louis, Mo.) according to the manufacturer's instructions. This assay utilizes Adenosine 5′-Triphosphatase isolated from porcine cerebral cortex. Each reaction was performed in a final volume of 250 μl using 0.5 units/ml enzyme in the presence of different inhibitors. […] IC50 values were determined using the Origin® program software (OriginLab, Northampton, Mass.).

[7] = system: DU145 (Prostate); assay: SRB assay, DU145; assay type: cell-based, human; conditions: for TGI / GI50: DU145, SRB, 48 h; for CC50 / GI50: Homo sapiens; for CC50: DU-145, 48 h, read-out: LC50; for GI50: DU-145
Procedure: as §2, §3, §4, §5, §6, §7, §8, §9

[8] = system: PCJ (Prostate); assay: SRB assay, PCJ; assay type: cell-based; conditions: Homo sapiens, 48 h; for CC50: read-out: LC50; for GI50 / IC (TGI): PCJ, SRB
Procedure, shortened: as §1

[9] = system: CAKJ1 (Renal); assay: SRB assay, CAKJ1; assay type: cell-based, human; conditions: 48 h; for TGI / GI50: CAKJ1, SRB; for CC50 / GI50: Homo sapiens; for CC50: read-out: LC50
Procedure: as §2, §3, §4, §5, §6, §7, §8, §9

[10] = system: A549 (Lung); assay: SRB assay, A549; assay type: cell-based, human; conditions: for TGI / GI50: A549, SRB, 48 h; for CC50 / GI50: Homo sapiens; for CC50: A549, 48 h, read-out: LC50
Procedure: as §2, §3, §4, §5, §6, §7, §8, §9

[11] = system: ADRRES (Ovary); assay: SRB assay, ADRRES (multidrug resistant NCI-ADR-RES); assay type: cell-based, human; conditions: for TGI / GI50: ADRRES; for TGI / GI50 / anti-tumor action in multidrug resistant cell line NCI-ADR-RES: SRB; for TGI / CC50 / GI50: 48 h; for CC50 / GI50: Homo sapiens, NCI/ADR-RES; for CC50: read-out: LC50; for anti-tumor action in multidrug resistant cell line NCI-ADR-RES: cells express high levels of MDR1 and P-glycoprotein
Procedure: NCI-ADR-RES cells have been classified as ovarian cancer cells by the National Cancer Institute.
as §2, §3, §4, §5, §6, §7, §8, §9
Table 4 also presents results with Compound Nos. 120, 12, 61, 1, and 56 in a well characterized drug resistant cell line, NCI-ADR-RES, that expresses high levels of MDR1 and P-glycoprotein.

[12] = system: OVCAR3 (Ovary); assay: SRB assay, OVCAR3; assay type: cell-based, human; conditions: for CC50 / GI50: Homo sapiens; for CC50: OVCAR-3, 48 h, read-out: LC50; for GI50: OVCAR-3; for GI50 / TGI: OVCAR3, SRB, 48 h
Procedure: as §2, §3, §4, §5, §6, §7, §8, §9

[13] = system: MB435 (Melanoma); assay: SRB assay, MB435; assay type: cell-based, human; conditions: 48 h; for CC50 / GI50: Homo sapiens; for CC50: read-out: LC50; for GI50 / TGI: MB435, SRB
Procedure: as §2, §3, §4, §5, §6, §7, §8, §9

| SMILES | CC50 [1] [nM] | GI50 [1] [nM] | IC (TGI) [1] [nM] | CC50 [2] [nM] | GI50 [2] [nM] | TGI [2] [nM] | TGI [3] [nM] | CC50 [3] [nM] | GI50 [3] [nM] | CC50 [4] [nM] | GI50 [4] [nM] | IC (TGI) [4] [nM] | CC50 [5] [nM] | GI50 [5] [nM] | TGI [5] [nM] | Na+K+ ATPase inhibitory activity (in words) [6] | TGI [7] [nM] | CC50 [7] [nM] | GI50 [7] [nM] | CC50 [8] [nM] | other results |
| --- | --- | --- | --- | --- | --- | --- | --- | --- | --- | --- | --- | --- | --- | --- | --- | --- | --- | --- | --- | --- | --- |
| C[C@]12CCC(=NOC3CCNC3)C=C1CCC1C2CC[C@]2(C)C(=O)CCC12 (stereo partly drawn) [Compound 61, (10R,13S)-10,13-dimethyl-3-(pyrrolidin-3-yloxyimino)-2,3,7,8,9,10,11,12,13,14,15,16-dodecahydro-1H-cyclopenta[a]phenanthren-17(6H)-one] | 8030 | 567 | 3020 | 12300 | 993 | 6623 | 2471 | 6840 | 493 | 9260 | 286 | 1310 | 9060 | 3850 | 6454.9 | strong Na+K+ ATPase inhibitory activities | 626.2 | 895 | 357 | 7420 | IC50 ([6]; 0.5 units/ml enzyme, five concentrations 10^−5 to 10^−9M, read-out: Na+ K+ Inhibitory Activity (IC50)): 496 nM; GI50 [8]: 281 nM; IC (TGI) [8]: 1810 nM; TGI [9]: 1251.6 nM; CC50 [9]: 6650 nM; GI50 [9]: 268 nM; TGI [10]: 514.9 nM; CC50 [10]: 823 nM; GI50 [10]: 207 nM; TGI [11]: 1015.6 nM; CC50 [11]: 6070 nM; GI50 [11]: 564 nM; anti-tumor action in multidrug resistant cell line NCI-ADR-RES [11]: potent anti-tumor action; CC50 [12]: 6120 nM; GI50 [12]: 355 nM; TGI [12]: 800.4 nM; CC50 [13]: 8200 nM; GI50 [13]: 649 nM; TGI [13]: 3378.4 nM |
| C[C@]12CCC(=NOCCN)CC1CCC1C2CC[C@]2(C)C(=O)CCC12 (stereo partly drawn) [Compound 1, (10S,13S)-3-(2-aminoethoxyimino)-10,13-dimethyltetradecahydro-1H-cyclopenta[a]phenanthren-17(2H)-one] | 908 | 385 | 647 | 7540 | 517 | 928.4 | 640.6 | 943 | 338 | 8100 | 364 | 1310 | 7320 | 834 | 3763 | very potent Na+K+ ATPase inhibitors | 588.2 | 844 | 332 | 897 | IC50 ([6]; read-out: Na+K+ ATPase inhibitory activity IC50): 124 nM; GI50 [8]: 253 nM; IC (TGI) [8]: 575 nM; TGI [9]: 643 nM; CC50 [9]: 948 nM; GI50 [9]: 338 nM; TGI [10]: 582.5 nM; CC50 [10]: 850 nM; GI50 [10]: 315 nM; TGI [11]: 647.9 nM; CC50 [11]: 944 nM; GI50 [11]: 321 nM; anti-tumor action in multidrug resistant cell line NCI-ADR-RES [11]: potent anti-tumor action; CC50 [12]: 984 nM; GI50 [12]: 291 nM; TGI [12]: 637.5 nM; CC50 [13]: 6380 nM; GI50 [13]: 598 nM; TGI [13]: 1399.5 nM |
